In US9750742B2, “Small molecular inhibitors of RAD51 recombinase and methods thereof” (Drexel University, priority 2011, dated 2017):

Key:
RAD51 = target: T1, RAD51 (Homo sapiens, UniProt Q06609); assay: Effect on RAD51 oligomerization (gel filtration); details: B02 200 μM, RAD51 13.5 μM
T1 construct: made in house
T1 sequence (Q06609 1-339): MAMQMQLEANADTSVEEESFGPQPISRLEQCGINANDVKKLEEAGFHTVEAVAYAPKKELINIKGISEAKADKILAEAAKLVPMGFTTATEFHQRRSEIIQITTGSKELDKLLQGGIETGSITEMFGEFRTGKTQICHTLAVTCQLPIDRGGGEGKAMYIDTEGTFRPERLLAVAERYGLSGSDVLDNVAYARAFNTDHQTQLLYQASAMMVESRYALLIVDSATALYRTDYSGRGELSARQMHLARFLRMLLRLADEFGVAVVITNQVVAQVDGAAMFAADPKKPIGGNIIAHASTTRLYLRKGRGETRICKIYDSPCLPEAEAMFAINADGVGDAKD
Method: The samples were then centrifuged for 15 min at 16,000×g, 4° C. Supernatants were loaded on a Superose 6 10/300 GL column (GE Healthcare) equilibrated with buffer E and eluted with a flow rate of 0.2 ml/min at 4° C. The gel filtration molecular weight marker kit (29-669 kDa, Sigma) was used for column calibration. The 0.3-ml fractions were collected and analyzed by electrophoresis in a 12% SDS-PAGE gel (100 V, 90 min).

RAD54 = target: T2, RAD54 (Homo sapiens, UniProt Q92698); assay: DNA branch migration assay for RAD54; assay type: biochemical; details: 0 to 200 μM
T2 construct: made in house
T2 sequence (Q92698 1-747): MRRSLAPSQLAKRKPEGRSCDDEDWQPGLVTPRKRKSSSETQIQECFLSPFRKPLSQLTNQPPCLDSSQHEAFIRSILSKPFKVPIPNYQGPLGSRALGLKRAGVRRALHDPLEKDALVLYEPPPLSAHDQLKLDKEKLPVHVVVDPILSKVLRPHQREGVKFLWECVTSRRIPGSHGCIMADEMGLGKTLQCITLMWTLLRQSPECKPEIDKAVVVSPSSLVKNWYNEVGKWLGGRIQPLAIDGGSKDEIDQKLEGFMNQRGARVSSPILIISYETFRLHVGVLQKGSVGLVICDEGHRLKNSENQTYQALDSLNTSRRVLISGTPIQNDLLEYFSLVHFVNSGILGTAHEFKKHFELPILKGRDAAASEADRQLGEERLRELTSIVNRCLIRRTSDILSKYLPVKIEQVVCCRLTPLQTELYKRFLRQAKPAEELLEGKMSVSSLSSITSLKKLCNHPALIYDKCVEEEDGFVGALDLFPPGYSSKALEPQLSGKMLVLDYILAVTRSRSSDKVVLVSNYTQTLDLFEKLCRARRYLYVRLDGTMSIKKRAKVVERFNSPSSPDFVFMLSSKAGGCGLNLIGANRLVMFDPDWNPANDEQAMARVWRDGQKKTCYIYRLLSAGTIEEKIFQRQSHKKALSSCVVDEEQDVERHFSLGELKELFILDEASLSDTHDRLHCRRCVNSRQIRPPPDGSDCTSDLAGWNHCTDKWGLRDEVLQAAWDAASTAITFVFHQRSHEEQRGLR
Method: The partial Holliday junction (PX-junction), in which one of the four DNA arms is single-stranded (FIG. 6A), was used as a substrate for the 4-stranded branch migration promoted by RAD54 (Mazina et al., 2007, J. Biol. Chem. 282:21068-80). […] To produce PX-junctions, tailed DNA (Oligo 170, SEQ ID NO:9; Oligo 171, SEQ ID NO:10) (1.45 μM, molecules) was annealed with ^32P-labeled fork DNA (Oligo 71, SEQ ID NO:7; Oligo 169, SEQ ID NO:8) (1.33 μM, molecules) in branch migration buffer containing 25 mM Tris acetate, pH 7.5, 3 mM magnesium acetate, 2 mM ATP, 1 mM dithiothreitol, 100 μg ml^−1 bovine serum albumin, 10 U ml^−1 creatine phosphokinase, 15 mM creatine phosphate for 10 min at 37° C. and then for 10 min at 30° C. Then, branch migration was initiated immediately by addition of the RAD54 (100 nM) to PX-junctions (33 nM, molecules) in branch migration buffer and was carried out at 30° C. […] The DNA products were deproteinized by treatment with stop buffer (1.4% (w/v) SDS, 960 μg ml^−1 proteinase K, 7.5% (w/v) glycerol, 0.015% (w/v) bromphenol blue) for 5 min at 22° C. and analyzed by electrophoresis in 8% (w/v) polyacrylamide gels (29:1) in 1×TBE buffer (89 mM Tris borate, pH 8.3, and 1 mM EDTA) at 22° C. The gels were dried on DE81 chromatography paper (Whatman, Kent, UK) and quantified using a Storm 840 PhosphorImager (Molecular Dynamics, Piscataway, N.J.).

O=c1c2ccccc2nc(/C=C/c2cccnc2)n1Cc1ccccc1 [Compound B02, (E)-3-benzyl-2-(2-(pyridin-3-yl)vinyl)quinazolin-4(3H)-one]
RAD51 oligomerization (RAD51): does not affect RAD51 oligomerization
inhibition of RAD54 branch migration, in words (RAD54): not to significantly inhibit
